Where “and” joins values, the source holds several entries; their conditions need not be identical. Identical values can stand only once. Toxic doses and inconclusive results are not listed.
Tested on: P388 leukemia ip, CD2F1 mice, survival T/C
Assay: NCI In Vivo Anticancer Drug Screen. Data for tumor model P388 Leukemia (intraperitoneal) in CD2F1 (CDF1) mice
Conditions: endpoint: median survival time, higher = longer survival
Summary of the method: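 Mice carrying the transplanted tumor received test compound or vehicle. Survival was recorded in each group, and the value is the treated-group measurement divided by that of the vehicle-treated control group.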

[1] = dose: 12.5 mg/kg/injection, schedule: Q01DX009 (ip), vehicle: saline
[2] = dose: 25.0 mg/kg/injection, schedule: Q01DX009 (ip), vehicle: saline
[3] = dose: 60.0 mg/kg/injection, schedule: Q01DX005 (ip), vehicle: Klucel (hydroxypropylcellulose) (HPC)
[4] = dose: 120.0 mg/kg/injection, schedule: Q01DX005 (ip), vehicle: Klucel (hydroxypropylcellulose) (HPC)
[5] = dose: 240.0 mg/kg/injection, schedule: Q01DX005 (ip), vehicle: Klucel (hydroxypropylcellulose) (HPC)
[6] = dose: 50.0 mg/kg/injection, schedule: Q01DX005 (ip), vehicle: saline with Tween-80
[7] = dose: 100.0 mg/kg/injection, schedule: Q01DX005 (ip), vehicle: saline with Tween-80
[8] = dose: 200.0 mg/kg/injection, schedule: Q01DX005 (ip), vehicle: saline with Tween-80
[9] = dose: 100.0 mg/kg/injection, schedule: Q01DX001 (ip), vehicle: saline with Tween-80
[10] = dose: 200.0 mg/kg/injection, schedule: Q01DX001 (ip), vehicle: saline with Tween-80
[11] = dose: 50.0 mg/kg/injection, schedule: Q01DX009 (ip), vehicle: saline with Tween-80
[12] = dose: 50.0 mg/kg/injection, schedule: Q01DX009 (ip), vehicle: saline

With `C(=N/NC1=NCCN1)/c1c2ccccc2c(/C=N\NC2=NCCN2)c2ccccc12` the T/C (dose: 0.05 mg/kg/injection, schedule: Q01DX009 (ip), vehicle: saline) was 155 % of control, the T/C (dose: 0.2 mg/kg/injection, schedule: Q01DX009 (ip), vehicle: saline) was 161 % of control and the T/C (dose: 0.39 mg/kg/injection, schedule: Q01DX009 (ip), vehicle: saline) was 183 % of control. The T/C (dose: 0.78 mg/kg/injection, schedule: Q01DX009 (ip), vehicle: saline) was 238 % of control, the T/C (dose: 1.56 mg/kg/injection, schedule: Q01DX009 (ip), vehicle: saline) was 188 % of control and 193 % of control and the T/C (dose: 3.12 mg/kg/injection, schedule: Q01DX009 (ip), vehicle: saline) was 204 % of control. For the same compound, the T/C (dose: 5.18 mg/kg/injection, schedule: Q04DX002 (ip), vehicle: saline) was 181 % of control, the T/C (dose: 6.25 mg/kg/injection, schedule: Q01DX009 (ip), vehicle: saline) was 193 % of control and the T/C (dose: 7.78 mg/kg/injection, schedule: Q04DX002 (ip), vehicle: saline) was 228 % of control. For the same compound, the T/C (dose: 8.64 mg/kg/injection, schedule: Q04DX002 (ip), vehicle: saline) was 227 % of control, the T/C [1] was 225 % of control and the T/C (dose: 13.0 mg/kg/injection, schedule: Q04DX002 (ip), vehicle: saline) was 166 % of control. The T/C (dose: 14.4 mg/kg/injection, schedule: Q04DX002 (ip), vehicle: saline) was 181 % of control, the T/C (dose: 21.6 mg/kg/injection, schedule: Q04DX002 (ip), vehicle: saline) was 184 % of control and the T/C (dose: 24.0 mg/kg/injection, schedule: Q04DX002 (ip), vehicle: saline) was 200 % of control. For the same compound, the T/C [2] was 121 % of control, the T/C (dose: 29.0 mg/kg/injection, schedule: Q01DX001 (ip), vehicle: water) was 195 % of control and the T/C (dose: 36.0 mg/kg/injection, schedule: Q04DX002 (ip), vehicle: saline) was 210 % of control. The T/C (dose: 40.0 mg/kg/injection, schedule: Q04DX002 (ip), vehicle: saline) was 181 % of control, the T/C (dose: 60.0 mg/kg/injection, schedule: Q04DX002 (ip), vehicle: saline) was 192 % of control and the T/C (dose: 87.0 mg/kg/injection, schedule: Q01DX001 (ip), vehicle: water) was 222 % of control. The T/C (dose: 133.0 mg/kg/injection, schedule: Q01DX001 (ip), vehicle: water) was 236 % of control, the T/C (dose: 200.0 mg/kg/injection, schedule: Q01DX001 (ip), vehicle: water) was 286 % of control and the T/C (dose: 1.57 micrograms/kg/injection, schedule: Q01DX009 (ip), vehicle: saline) was 100 % of control. The T/C (dose: 3.13 micrograms/kg/injection, schedule: Q01DX009 (ip), vehicle: saline) was 99 % of control, the T/C (dose: 6.25 micrograms/kg/injection, schedule: Q01DX009 (ip), vehicle: saline) was 107 % of control and the T/C (dose: 12.5 micrograms/kg/injection, schedule: Q01DX009 (ip), vehicle: saline) was 104 % of control. The T/C (dose: 25.0 micrograms/kg/injection, schedule: Q01DX009 (ip), vehicle: saline) was 109 % of control and the T/C (dose: 50.0 micrograms/kg/injection, schedule: Q01DX009 (ip), vehicle: saline) was 122 % of control.
For `CC(=O)OCN(C)N=Nc1ccc(C(N)=O)cc1`, the T/C [3] was 92 % of control, the T/C [4] was 95 % of control and the T/C [5] was 95 % of control.
In the case of `CCC(CC)C1SCC(=O)N1c1nncs1` (stereo not given), the T/C [6] is reported as 99 % of control, the T/C [7] is reported as 105 % of control and the T/C [8] is reported as 102 % of control.
In the case of `COc1ccc(C(C#N)C(=O)C(=O)Nc2ccc(Cl)cc2C)cc1OC` (stereo not given), the T/C (dose: 60.0 mg/kg/injection, schedule: Q01DX005 (ip), vehicle: saline with Tween-80) is reported as 100 % of control, the T/C (dose: 120.0 mg/kg/injection, schedule: Q01DX005 (ip), vehicle: saline with Tween-80) is reported as 100 % of control and the T/C (dose: 240.0 mg/kg/injection, schedule: Q01DX005 (ip), vehicle: saline with Tween-80) is reported as 105 % of control.
`CCOC(=O)c1[nH]ncc1[N+](=O)[O-]` was tested, and the T/C [9] was 103 % of control, the T/C [10] was 102 % of control and the T/C (dose: 400.0 mg/kg/injection, schedule: Q01DX001 (ip), vehicle: saline with Tween-80) was 102 % of control.
In the case of `CC1=CC(=O)C=CC1=Nc1ccc(N(C)C)cc1`, the T/C (dose: 25.0 mg/kg/injection, schedule: Q01DX009 (ip), vehicle: saline with Tween-80) is reported as 108 % of control and the T/C [11] is reported as 109 % of control.
In the case of `CCCCNP(=O)(N1CC1C)N1CC1C` (stereo not given), the T/C (dose: 8.25 mg/kg/injection, schedule: Q01DX009 (ip), vehicle: saline) is reported as 112 % of control, the T/C [1] is reported as 120 % of control and the T/C [2] is reported as 109 % of control. The T/C [12] was 86 % of control.
`CCCCCCCCCCCCCC(C)NCc1ccccc1` (stereo not given) was tested, and the T/C (dose: 25.0 mg/kg/injection, schedule: Q04DX003 (ip), vehicle: saline with Tween-80) was 96 % of control and the T/C (dose: 50.0 mg/kg/injection, schedule: Q04DX003 (ip), vehicle: saline with Tween-80) was 100 % of control.
With `C#CC(C)OC` (stereo not given) the T/C [12] was 96 % of control, the T/C (dose: 100.0 mg/kg/injection, schedule: Q01DX009 (ip), vehicle: saline) was 90 % of control and the T/C (dose: 200.0 mg/kg/injection, schedule: Q01DX009 (ip), vehicle: saline) was 86 % of control.
For `O=C1NC(N(CCCl)CCCl)=NC1(c1ccccc1)c1ccccc1`, the T/C (dose: 12.5 mg/kg/injection, schedule: Q04DX002 (ip), vehicle: saline with Tween-80) was 97 % of control, the T/C (dose: 25.0 mg/kg/injection, schedule: Q04DX002 (ip), vehicle: saline with Tween-80) was 94 % of control and the T/C (dose: 50.0 mg/kg/injection, schedule: Q04DX002 (ip), vehicle: saline with Tween-80) was 94 % of control. For the same compound, the T/C (dose: 100.0 mg/kg/injection, schedule: Q04DX002 (ip), vehicle: saline with Tween-80) was 106 % of control and the T/C (dose: 200.0 mg/kg/injection, schedule: Q04DX002 (ip), vehicle: saline with Tween-80) was 96 % of control.
With `CCN(CC)CCOC(=O)C(c1ccccc1)C1(O)CCCCC1` (stereo not given) the T/C (dose: 50.0 mg/kg/injection, schedule: Q01DX005 (ip), vehicle: saline) was 100 % of control and the T/C (dose: 100.0 mg/kg/injection, schedule: Q01DX005 (ip), vehicle: saline) was 107 % of control.
For `CN(C)Cc1c(N=Nc2cccc3ccccc23)[nH]c2ccccc12`, the T/C (dose: 50.0 mg/kg/injection, schedule: Q01DX009 (ip), vehicle: Klucel (hydroxypropylcellulose) (HPC)) was 106 % of control, the T/C (dose: 100.0 mg/kg/injection, schedule: Q01DX009 (ip), vehicle: Klucel (hydroxypropylcellulose) (HPC)) was 101 % of control and the T/C (dose: 200.0 mg/kg/injection, schedule: Q01DX009 (ip), vehicle: Klucel (hydroxypropylcellulose) (HPC)) was 105 % of control.
For `Cn1c(=O)oc2cc(N)c(Cl)cc21`, the T/C (dose: 12.5 mg/kg/injection, schedule: Q01DX005 (ip), vehicle: Klucel (hydroxypropylcellulose) (HPC)) was 88 % of control, the T/C (dose: 25.0 mg/kg/injection, schedule: Q01DX005 (ip), vehicle: Klucel (hydroxypropylcellulose) (HPC)) was 94 % of control and the T/C (dose: 50.0 mg/kg/injection, schedule: Q01DX005 (ip), vehicle: Klucel (hydroxypropylcellulose) (HPC)) was 100 % of control and 87 % of control.
In the case of `O=C(CNC(=O)c1ccccc1)OC(C(=O)O)c1ccc(F)cc1` (stereo not given), the T/C [11] is reported as 100 % of control, the T/C (dose: 100.0 mg/kg/injection, schedule: Q01DX009 (ip), vehicle: saline with Tween-80) is reported as 102 % of control and the T/C (dose: 200.0 mg/kg/injection, schedule: Q01DX009 (ip), vehicle: saline with Tween-80) is reported as 96 % of control.
For `O=C1CCCc2[nH]c3ccc(F)cc3c21`, the T/C [6] was 91 % of control, the T/C [7] was 90 % of control and the T/C [8] was 88 % of control.
`CCOC(=N)c1ccc(C(=N)OCC)cc1` was tested, and the T/C (dose: 60.0 mg/kg/injection, schedule: Q01DX005 (ip), vehicle: saline) was 97 % of control, the T/C (dose: 120.0 mg/kg/injection, schedule: Q01DX005 (ip), vehicle: saline) was 100 % of control and the T/C (dose: 240.0 mg/kg/injection, schedule: Q01DX005 (ip), vehicle: saline) was 104 % of control.
For `O=C1OCCOCCOCCOC(=O)c2ccccc2SSc2ccccc21`, the T/C [9] was 90 % of control and the T/C [10] was 97 % of control.
`COc1ccc(OC)c(CC(C(C)=O)C(C)=O)c1` was tested, and the T/C (dose: 25.0 mg/kg/injection, schedule: Q01DX009 (ip), vehicle: other) was 100 % of control, the T/C (dose: 50.0 mg/kg/injection, schedule: Q01DX009 (ip), vehicle: other) was 105 % of control and the T/C (dose: 100.0 mg/kg/injection, schedule: Q01DX009 (ip), vehicle: other) was 106 % of control. The T/C (dose: 200.0 mg/kg/injection, schedule: Q01DX009 (ip), vehicle: other) was 108 % of control and the T/C (dose: 400.0 mg/kg/injection, schedule: Q01DX009 (ip), vehicle: other) was 116 % of control.
For `C1=C(c2ccccc2)CS1`, the T/C [9] was 102 % of control.
For `OCCCOc1ccc(OCCCO)cc1`, the T/C [3] was 100 % of control, the T/C [4] was 99 % of control and the T/C [5] was 103 % of control.
